Measured values reported in patent US7396524B2, “Methods for screening compounds for proarrhythmic risk and antiarrhythmic efficacy” (Main Line Health Heart Center, priority 2005, dated 2008).
Like-named read-outs stand apart in the source and are kept apart here.

Columns and labels:
[1] = test system: rabbit left ventricular wedge preparations and single rabbit ventricular myocytes
[2] = test system: rabbit left ventricular wedge preparations; assay: Rabbit left ventricular wedge preparation: endocardial APD90, EAD and TdP
Protocol: Female rabbits weighting 2.5-3 kg were anticoagulated with heparin and anesthetized with pentobarbital (30-35 mg/kg, i.v.). The chest was opened via a left thoracotomy, and the heart was excised and placed in a cardioplegic solution consisting of cold (4° C.) normal Tyrode's solution. Transmural wedges with dimensions of approximately 1.5 cm wide and 2-3 cm long were dissected from the left ventricle. The wedge tissue was cannulated via the circumflex or left main artery and perfused with cardioplegic solution. The preparation was then placed in a small tissue bath and arterially perfused with Tyrode's solution containing 4 mM K^+ buffered with 95% O2 and 5% CO2 (T: 35.7±0.1° C., perfusion pressure: 35-45 mmHg). The ventricular wedge was allowed to equilibrate in the tissue bath until electrically stable, approximately one hour. The preparations were stimulated at basic cycle lengths (BCL) of 1000 and 2000 ms using bipolar silver electrodes insulated except at the tips and applied to the endocardial surface.
A transmural ECG signal was recorded in all experiments using extracellular silver/silver chloride electrodes placed in the Tyrode's solution bathing the preparation. Electrodes were placed 1.0 to 1.5 cm from the epicardial and endocardial surfaces, along the same vector as the transmembrane recordings (Epi: “+” pole). The QT interval was defined as the time from the onset of the QRS to the point at which the final downslope of the T wave crosses the isoelectric line. Transmembrane action potentials were recorded simultaneously from epicardial and endocardial sites of the rabbit left ventricular wedge preparations. The action potential duration was measured at 90% repolarization (APD90).

[3] = cited from earlier work
[4] = experimental data; cited from earlier work
[5] = test system: Purkinje fiber; details: cited from earlier work
[6] = test system: L-type calcium channel current (ICa,L); assay: Ratio of ICa,L recovery time constant (whole-cell voltage clamp, double-pulse protocol) to endocardial APD90; assay type: cell-based; details: 30 μM; control ratio 0.448; rabbit
Protocol: Single rabbit ventricular myocytes were isolated using the enzymatic digestion method as described in Rials et al., Circulation 1997; 96:1330-1336. The rabbit heart was initially perfused with 500 ml Ca^2+-free solution (in mM: NaCl 125, KCl 3.5, KH2PO4 1.5, MgCl2 1, NaHCO3 20, glucose 10) gassed with 95% O2-5% CO2 at 37° C. at a rate of 30 ml/min with a peristaltic pump. The heart was then perfused with 80 ml enzyme solution (48 mg collagenase (type II), 12 mg hyaluronidase, 80 mg BSA, and 300 mg taurine to the Ca^2+-free solution). The enzyme solution passed through the heart a single time before 40 ml, and recirculation after 40 ml. […]
ICa,L was recorded in rabbit single ventricular myocytes at 35.7±0.1° C. using the whole-cell voltage-clamp technique as described by Linz and Meyer, Pflugers Arch. […]
The action potentials were first recorded from the endocardium of the rabbit left ventricular wedge preparation at a basic cycle length of 2000 ms before and after exposure to a test compound. […]
The ratio of ICa,L recovery time constant to endocardial APD90 under control and after exposure to one of the test compounds described above was determined as follows: the ratio equals τ(ms)/APD90 (ms). The relative TdP risk score was then calculated based on the change in the QT interval and the ratio according to the criteria listed in Table 1. […]

| Structure (SMILES) | Maximal TdP Score ([1]; 20 min) | maximal TdP score in the testing concentration range ([1]; 20 min) | further results |
| --- | --- | --- | --- |
| O=C(CCCN1CCC(O)(c2ccc(Cl)cc2)CC1)c1ccc(F)cc1 [haloperidol] | 4.2 ± 0.6 | 4.20±0.58 | – |
| CNCCC(Oc1ccc(C(F)(F)F)cc1)c1ccccc1 (stereo not shown) [fluxetine] | – | – | maximal TdP score in the testing concentration range ([1]; Table 1 criteria, means ±SEM, text and FIG. 7 legend): 0.00±0.00; Maximal TdP Score ([1]; Table 2, Table 1 criteria, means ±SEM): 0.0 ± 0.0 |
| COc1c(N2C[C@@H]3CCCN[C@@H]3C2)c(F)cc2c(=O)c(C(=O)O)cn(C3CC3)c12 [moxifloxacin] | 4.0 ± 0.0 | 4.00±0.00 | – |
| CN(CCOc1ccc(NS(C)(=O)=O)cc1)CCc1ccc(NS(C)(=O)=O)cc1 [dofetilide] | – | – | increase in rabbit endocardial APD90 ([2]; dofetilide 0.003 μM vs control, n=8): 76%; development of EAD (preparations) ([2]; dofetilide 0.003 μM, rabbit left ventricular wedge preparations): seven of eight; TdP (rabbits) ([2]; dofetilide 0.01 μM): all of eight; rabbit endocardial APD90 ([2]; female, rabbit, 0.003 μM): 443 ± 27 ms |
| C=C[C@H]1C[N@@]2CC[C@H]1C[C@@H]2[C@@H](O)c1ccnc2ccc(OC)cc12 [quinidine] | 11.8 ± 0.2 | 11.75±0.22 | – |
| CC(C)NCC(O)c1ccc(NS(C)(=O)=O)cc1 (stereo not shown) [sotalol] | 10.0 ± 0.0 | 10.00±0.00 | ratio of ICa,L recovery time constant (τ) to endocardial APD90 [6]: 0.325 |
| CCCCc1oc2ccccc2c1C(=O)c1cc(I)c(OCCN(CC)CC)c(I)c1 [amiodarone] | – | – | TdP risk in humans [3]: rarely causes TdP |
| O=C(NCC1CCCCN1)c1cc(OCC(F)(F)F)ccc1OCC(F)(F)F (stereo not shown) [flecainide] | 1.3 ± 0.2 | 1.25±0.22 | – |

Now from value to compound, other results behind:

| Maximal TdP Score ([1]; 20 min) | maximal TdP score in the testing concentration range ([1]; 20 min) | Structure (SMILES) | further results |
| --- | --- | --- | --- |
| 1.3 ± 0.2 | 1.25±0.22 | CN(C)CCCC1(c2ccc(F)cc2)OCc2cc(C#N)ccc21 (stereo not shown) [citalopram] | – |
| 7.5 ± 0.3 | 7.50±0.26 | CC(C)COCC(CN(Cc1ccccc1)c1ccccc1)N1CCCC1 (stereo not shown) [bepridil] | TdP risk in humans [3]: known to cause TdP in humans; increase in the QT interval [4]: fails to produce a significant increase; increase in the action potential duration of the Purkinje fiber [5]: have not been shown to produce a significant increase |
